Source: PubChem BioAssay (NCI)
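Cultured in 96-well plates, cells were exposed to test compound for 48 hours across five concentrations. TGI is the concentration that stops growth completely.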 Where a SMILES comes first, the peptide text is derived from it. The star is where a group is joined. OSu = O=C1CCC(=O)N1O*

Legend:
Assay in all cases: NCI tumour cell line growth inhibition, 48 h
ACHN renal = test system: ACHN renal
SN12C renal = test system: SN12C renal
SF-539 CNS = test system: SF-539 CNS
SNB-75 CNS = test system: SNB-75 CNS
MDA-N = test system: MDA-N
NCI-H460 lung = test system: NCI-H460 lung
SW-620 colon = test system: SW-620 colon
M14 melanoma = test system: M14 melanoma
SNB-19 CNS = test system: SNB-19 CNS
COLO 205 colon = test system: COLO 205 colon

Structure (SMILES)	TGI (ACHN renal) [µM]	TGI (SN12C renal) [µM]	TGI (SF-539 CNS) [µM]	TGI (SNB-75 CNS) [µM]	TGI (MDA-N) [µM]	TGI (NCI-H460 lung) [µM]	TGI (SW-620 colon) [µM]	TGI (M14 melanoma) [µM]	TGI (SNB-19 CNS) [µM]	TGI (COLO 205 colon) [µM]
O=C(Nc1ccc2cc3ccccc3cc2c1)c1cc2c(cc1Cl)Sc1nccn1S2(=O)=O	> 100	> 100	33.8	81.2	> 100	> 100	> 100	> 100	> 100	> 100
N#Cc1c(-c2ccccc2)cc(Nc2ccc(Cl)cc2)n2c1nc1ccccc12	> 100	> 32.2	> 49.5	> 31.1	> 41.6	> 37.6	> 100	> 100	> 100	2.8
COc1ccc2c(c1OC)C(=O)O[C@@H]2[C@H]1c2c(cc3c(c2OC)OCO3)CCN1C	> 100	> 100	> 100	34	> 100	> 100	> 100	> 100	> 100	> 100
COCOc1cc(OC)ccc1C/C(=N/O)C(=O)OC	> 100	> 100	> 100	74.4	> 100	> 100	> 100	> 100	> 100	> 100
CC(=O)NC1(C)C(C)C2CC1C(C)C2(C)C (configuration not stated)	> 100	> 100	> 100	> 100	> 100	> 100	> 100	> 100	> 100	> 100
O=C1C(Cl)=C(NCCF)C(=O)c2ncccc21	5.22	3.35	3.23	2.6	0.392	3.73	3.35	3.15	2.99	–
Cc1cn(C2OC(CO)C(O)C2F)c(=O)[nH]c1=O (configuration not stated)	> 100	> 100	> 100	> 100	> 100	> 100	> 100	> 100	> 100	> 100
COc1ccc(CCN2C(=O)CC34C=CC(CC3C2=O)O4)cc1OC (configuration not stated)	> 100	> 100	> 100	–	> 100	–	> 100	> 100	> 100	> 100
C[n+]1ccccc1/C1=c2\cc/c([nH]2)=C(\c2cccc[n+]2C)C2=N/C(=C(/c3cccc[n+]3C)C3C=CC(N3)/C(c3cccc[n+]3C)=C3/C=CC1=N3)C=C2	> 100	> 100	> 100	–	> 100	> 100	> 100	> 100	> 100	> 100
O=C(C1OC1c1cccc([N+](=O)[O-])c1)C12CC3CC(CC(C3)C1)C2 (configuration not stated)	23	13.2	22.6	20	11.9	14.5	8.44	22.8	20.5	23.4
O=c1[nH]c(=O)n([C@@H]2O[C@H](CO)[C@@H](O)[C@@H]2F)cc1I	> 100	> 100	> 100	> 100	> 100	> 100	> 100	> 100	> 100	> 100
O=C1/C(=C/c2ccccc2)CCCc2ccccc21	47	33.8	32.1	> 100	36.7	31.4	32.9	41.4	29.3	33.3
COc1cc(OC)c(C2(c3c(OC(C)C)c(=O)c3=O)SCCCS2)cc1OC	> 100	> 100	> 100	> 100	> 100	> 100	> 100	> 100	> 100	> 100
COC(=O)[C@H](Cc1c[nH]c2ccccc12)NC(=O)c1ccccc1I	30.8	> 100	–	32.4	42.6	> 100	> 100	32.4	> 100	33.3
CC(=O)n1nc(-c2ccc3ccccc3c2)nc1C	> 100	> 100	> 100	> 100	> 100	> 100	> 100	> 100	–	> 100
CN(C)N=Nc1ccc2[nH]c(=O)[nH]c2c1	> 100	> 100	> 100	> 100	> 100	> 100	> 100	> 100	> 100	> 100
CCC(=O)Nc1ccc(NCC(=O)Nc2ccc(OC)cc2)cc1	> 100	37.5	38.6	34.3	> 100	–	> 100	> 100	31.3	> 100
CCOC(=O)c1nc2cc(C(F)(F)F)ccc2nc1Oc1ccc(F)cc1	> 100	> 100	> 100	> 100	> 100	> 100	> 100	> 100	> 100	> 100
Cc1ccc(S(=O)(=O)NC(=O)NC(CCC(N)=O)C(=O)O)cc1 (configuration not stated)	> 100	> 100	> 100	> 100	> 100	> 100	> 100	> 100	> 100	> 100
COC(=O)C1(O)C(c2ccccc2)NC2(C)CCCC21 (configuration not stated)	> 100	> 100	> 100	> 100	> 100	–	> 100	> 100	> 100	> 100
COc1cccc2cc(C(=O)NC34CC5CC(CC(C5)C3)C4)c(=N)oc12	> 100	> 100	> 56.1	> 100	> 100	> 100	> 100	> 100	> 100	> 100
CN(C)c1ccc(/C=C(\NC(=O)c2ccccc2)C(=O)NC(Cc2c[nH]c3ccccc23)C(=O)O)cc1 (configuration not stated)	> 100	> 100	> 100	33.1	> 100	> 100	> 100	> 100	> 100	> 100

Structure (SMILES)	TGI (ACHN renal) [µM]	TGI (SN12C renal) [µM]	TGI (SF-539 CNS) [µM]	TGI (SNB-75 CNS) [µM]	TGI (MDA-N) [µM]	TGI (NCI-H460 lung) [µM]	TGI (SW-620 colon) [µM]	TGI (M14 melanoma) [µM]	TGI (SNB-19 CNS) [µM]	TGI (COLO 205 colon) [µM]
O=c1c2c3c(sc2nc2n1N=CN(c1ccc(F)cc1)C2)CCCC3	> 100	> 100	–	> 100	> 100	> 100	> 100	> 100	> 100	> 100
CNC(=S)/C(C#N)=C(\N)N1CCCC1	> 100	> 100	> 100	–	> 100	> 100	> 100	–	> 100	> 100
NCCCCC(NC(=O)C(N)Cc1ccc(O)cc1)C(=O)NC(Cc1ccc(O)cc1)C(=O)NC(CCCCN)C(=O)ON1C(=O)CCC1=O (configuration not stated) (H-YKYK-OSu; configuration not given here)	> 100	> 100	–	> 100	> 100	> 100	> 100	> 100	> 100	> 100
C1=NCCOCCN=Cc2ccc(cc2)OCc2cccc(n2)COc2ccc1cc2	> 100	> 100	> 100	> 100	> 100	> 100	> 100	> 100	> 100	> 100
C#C[C@]1(O)CC[C@H]2[C@@H]3CCC4=C/C(=N/OC(=O)c5cccc6c(=O)c7ccccc7[nH]c56)CCC4[C@H]3CC[C@@]21CC (some centres not stated)	> 100	> 100	–	> 100	> 100	> 100	> 63.5	> 100	> 100	> 79.9
Cc1cc(NS(=O)(=O)c2ccc(Nc3c4ccccc4nc4c(C(=O)NCCO)cccc34)cc2)no1	> 100	> 100	–	53.9	> 100	> 100	83.8	70	> 100	> 100
O=C(NC1(C(=O)O)CCCC1)c1ccccc1	> 100	> 100	> 100	–	> 100	> 100	> 100	> 100	> 100	> 100
CCOC1CCN(C(=O)c2ccccc2)O1 (configuration not stated)	> 10	> 10	> 10	> 10	> 10	> 10	> 10	> 10	> 10	> 10
C=CCn1c(-c2ccc(Cl)cc2)csc1=Nc1ccccc1OC	> 100	> 100	> 100	> 94.3	> 59.6	> 100	> 100	> 87.9	> 100	> 100
O=P1(Cc2ccccc2)c2ccccc2-c2ccccc21	52.1	> 78.8	39.5	> 50.7	10.9	48.3	35	20.2	> 37.8	17
O=C1NC(=Nc2ccccc2)C(=Nc2ccccc2)N1c1ccccc1	30.6	30.5	31.5	30.9	25.6	30.8	30	–	31.4	28
COc1ccc2c3c1OC1C(OC)(OC)CC4(C=C2)CN(C)CCC314 (configuration not stated)	> 100	> 100	> 100	> 100	> 100	> 100	> 100	–	> 100	> 100
Cc1ccc(SCC(OCn2cnc3c(Cl)nc(N)nc32)[C@H](C)F)cc1 (some centres not stated)	> 100	> 100	> 100	> 100	> 100	> 100	> 100	> 100	> 100	> 100
C[n+]1cn(-c2nc3ccccc3nc2[N-]S(=O)(=O)c2ccccc2)c2ccccc21	> 100	> 100	> 100	> 100	> 100	> 100	> 100	> 100	> 100	> 100
CC(=O)c1c(O)n(-c2ccc(C)cc2)c(=O)c2c(N)n[nH]c12	–	> 100	> 100	> 100	> 100	> 100	> 100	> 100	> 100	> 100
CCOC(=O)C1(C(=O)OCC)C=C(c2ccccc2)N(C2OC(COC(C)=O)C(OC(C)=O)C(OC(C)=O)C2OC(C)=O)C1=S (configuration not stated)	–	> 100	> 100	–	> 100	> 100	> 100	> 100	> 100	> 100
Cc1cc(N(CCC#N)CCC#N)ccc1/C(N=Nc1ccc([N+](=O)[O-])cc1)=N\NC(=O)c1ccccc1	> 100	> 100	92.9	> 100	> 100	> 100	–	> 100	> 100	> 100
C=CCN(CCN(CC=C)S(=O)(=O)c1ccc(C)cc1)S(=O)(=O)c1ccc(C)cc1	> 100	> 100	–	> 100	> 100	> 100	> 100	> 100	> 100	> 100
COc1ccc2oc(C(=O)N3CC(CCl)c4ccc(N)cc43)cc2c1 (configuration not stated)	–	8.5	5.66	3.23	1.82	1.74	31.5	–	19.5	1.28
Cc1ccc(/S(Cc2ccccc2)=N\S(=O)(=O)c2ccc(C)cc2)cc1 (configuration not stated)	> 100	> 100	> 100	–	> 100	> 100	> 100	> 100	> 100	> 100
COc1cc(OC)c(OC)cc1/C=C/c1cc[n+](C)c2ccccc12	> 100	–	–	> 100	> 100	> 100	> 100	> 100	> 100	19
C=CCCC(=O)C(=[N+]=[N-])C(=O)CCC(=O)c1ccccc1	> 10	> 10	> 10	> 10	> 10	> 10	> 10	> 10	> 10	–
